Patent US8268881B2, “Carboxamide derivatives as muscarinic receptor antagonists” (Pfizer Limited, priority 2005, dated 2012)

The compounds below were run against T1, human muscarinic M3 receptor (Homo sapiens, UniProt P20309) (assay: hM3 β-Lac potency assay (cell based β-lactamase)). Settings: CHO cells expressing human M3 receptor, NFAT β-lactamase reporter; […]; IC50 converted to Ki by Cheng-Prusoff; read-out: Cell based β-lactamase M3 Ki.
T1 construct: expressed in transfected cells
T1 sequence (P20309 whole entry): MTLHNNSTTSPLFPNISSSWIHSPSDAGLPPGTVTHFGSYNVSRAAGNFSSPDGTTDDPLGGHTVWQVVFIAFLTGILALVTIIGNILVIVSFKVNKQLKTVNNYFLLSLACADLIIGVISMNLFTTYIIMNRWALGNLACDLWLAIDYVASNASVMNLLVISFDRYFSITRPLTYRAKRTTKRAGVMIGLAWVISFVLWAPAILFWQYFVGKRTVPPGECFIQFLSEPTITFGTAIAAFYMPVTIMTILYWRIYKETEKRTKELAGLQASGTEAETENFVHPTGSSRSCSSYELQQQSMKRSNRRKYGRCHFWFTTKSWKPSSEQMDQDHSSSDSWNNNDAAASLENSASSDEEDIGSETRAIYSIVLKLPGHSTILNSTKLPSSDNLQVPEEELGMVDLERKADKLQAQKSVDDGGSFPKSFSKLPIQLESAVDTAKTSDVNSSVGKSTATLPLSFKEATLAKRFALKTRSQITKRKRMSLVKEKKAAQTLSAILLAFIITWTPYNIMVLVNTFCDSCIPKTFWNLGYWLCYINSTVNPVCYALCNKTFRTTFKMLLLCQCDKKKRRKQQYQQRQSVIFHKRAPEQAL
Method: M3 potency was determined in CHO-K1 cells transfected with the NFAT-Betalactamase gene. CHO (Chinese Hamster Ovary) cells recombinantly expressing the human muscarinic M3 receptor were transfected with the NFAT_β-Lac_Zeo plasmid.
The cells were re-suspended at 2×10^5 cells/ml in growth medium (composition as described above). […] Inhibition curves were plotted and IC50 values generated using a 4-parameter sigmoid fit and converted to Ki values using the Cheng-Prusoff correction and the KD value for carbamyl choline in the assay.
In the case of `COc1cccc(OC2CN(C(C)(C)CCC(C#N)(c3ccccc3)c3ccccc3)C2)c1` [Example 99, 5-[3-(3-Methoxyphenoxy)azetidin-1-yl]-5-methyl-2,2-diphenylhexanenitrile], the Ki is reported as 65.7 nM.
Compound `CC(C)(CCC(C#N)(c1ccccc1)c1ccccc1)N1CC(OCc2ccc(O)cc2)C1` [Example 151, 5-{3-[(4-Hydroxybenzyl)oxy]azetidin-1-yl}-5-methyl-2,2-diphenylhexanenitrile] has a Ki of 0.191 nM.

Same assay, conditions: CHO cells expressing human M3 receptor, NFAT β-lactamase reporter; inhibition of 80 nM carbamyl choline signal, 4 h; IC50 converted to Ki by Cheng-Prusoff; read-out: Cell based β-lactamase M3 Ki
`COc1cccc(OC2CN(C(C)(C)CCC(C(N)=O)(c3ccccc3)c3ccccc3)C2)c1` [Example 100, 5-[3-(3-Methoxyphenoxy)azetidin-1-yl]-5-methyl-2,2-diphenylhexanamide] showed a Ki of 0.43 nM.
`CC(C)(CCC(C(N)=O)(c1ccccc1)c1ccccc1)N1CC(OCc2ccccc2)C1` [Example 102, 5-[3-(Benzyloxy)azetidin-1-yl]-5-methyl-2,2-diphenylhexanamide] showed a Ki of 0.0636 nM.
`CC(C)(CCC(C(N)=O)(c1ccccc1)c1ccccc1)N1CC(Oc2ccccc2)C1` [Example 104, 5-Methyl-5-(3-phenoxyazetidin-1-yl)-2,2-diphenylhexanamide] was tested, and the Ki was 0.0488 nM.
With `COc1ccc(OC2CN(C(C)(C)CCC(C#N)(c3ccccc3)c3ccccc3)C2)cc1` [Example 105, 5-[3-(4-Methoxyphenoxy)azetidin-1-yl]-5-methyl-2,2-diphenylhexanenitrile] the Ki was 1.94 nM.
With `CC(C)(CCC(C(N)=O)(c1ccccc1)c1ccccc1)N1CC(Oc2ccc(O)cc2)C1` [Example 107, 5-[3-(4-hydroxyphenoxy)azetidin-1-yl]-5-methyl-2,2-diphenylhexanamide] the Ki was 0.132 nM.
With `CC(C)(CCC(C(N)=O)(c1ccccc1)c1ccccc1)N1CC(Oc2cccc(O)c2)C1` [Example 108, 5-[3-(3-Hydroxyphenoxy)azetidin-1-yl]-5-methyl-2,2-diphenylhexanamide] the Ki was 0.201 nM.
Work on `CC(C)(CCC(C(N)=O)(c1ccccc1)c1ccccc1)N1CC(Oc2ccccc2O)C1` [Example 109, 5-[3-(2-Hydroxyphenoxy)azetidin-1-yl]-5-methyl-2,2-diphenylhexanamide] yielded a Ki of 10.8 nM.
`CC(C)(CCC(C(N)=O)(c1ccccc1)c1ccccc1)N1CC(Oc2cc(Cl)c(Cl)cc2O)C1` [Example 111, 5-{3-(4,5-Dichloro-2-hydroxy-phenoxy)-azetidin-1-yl}-5-methyl-2,2-diphenylhexanamide] showed a Ki of 76.9 nM.
For `COc1cc(OC2CN(C(C)(C)CCC(C(N)=O)(c3ccccc3)c3ccccc3)C2)ccc1Cl` [Example 113, 5-[3-(4-Chloro-3-methoxy-phenoxy)-azetidin-1-yl]-5-methyl-2,2-diphenylhexanamide], the Ki was 7.22 nM.
Work on `CC(C)(CCC(C(N)=O)(c1ccccc1)c1ccccc1)N1CC(Oc2ccc(Cl)c(O)c2)C1` [Example 114, 5-[3-(4-Chloro-3-hydroxy-phenoxy)-azetidin-1-yl]-5-methyl-2,2-diphenylhexanamide] yielded a Ki of 1.94 nM.
Work on `CC(C)(CCC(C(N)=O)(c1ccccc1)c1ccccc1)N1CC(OCc2cccc(O)c2)C1` [Example 115, 5-[3-(3-Hydroxy-benzyloxy)-azetidin-1-yl]-5-methyl-2,2-diphenyl-hexanoic acid amide] yielded a Ki of 0.176 nM.
With `CC(C)(CCC(C(N)=O)(c1ccccc1)c1ccccc1)N1CC(Oc2cc(O)ccc2Cl)C1` [Example 118, 5-[3-(2-Chloro-5-hydroxy-phenoxy)-azetidin-1-yl]-5-methyl-2,2-diphenyl-hexanoic acid amide] the Ki was 40.7 nM.
For `CC(C)(CCC(C(N)=O)(c1ccccc1)c1ccccc1)N1CC(Oc2cc(O)cc(F)c2)C1` [Example 121, 5-{3-(3-Fluoro-5-hydroxy-phenoxy)-azetidin-1-yl}-5-methyl-2,2-diphenylhexanamide], the Ki was 0.604 nM.
In the case of `CC(C)(CCC(C(N)=O)(c1ccccc1)c1ccccc1)N1CC(Oc2cc(O)cc(Cl)c2)C1` [Example 124, 5-[3-(3-Chloro-5-hydroxy-phenoxy)-azetidin-1-yl]-5-methyl-2,2-diphenylhexanamide], the Ki is reported as 0.223 nM.
Work on `CC(C)(CCC(C(N)=O)(c1ccccc1)c1ccccc1)N1CC(Oc2ccc(F)cc2O)C1` [Example 127] yielded a Ki of 110 nM.
With `CC(C)(CCC(C(N)=O)(c1ccccc1)c1ccccc1)N1CC(OCc2c(Cl)ccc(O)c2Cl)C1` [Example 128, 5-[3-(2,6-Dichloro-3-hydroxy-benzyloxy)-azetidin-1-yl]-5-methyl-2,2-diphenyl-hexanoic acid amide] the Ki was 8.19 nM.
Work on `CC(C)(CCC(C(N)=O)(c1ccccc1)c1ccccc1)N1CC(OCc2ccc(Cl)c(O)c2)C1` [Example 138, 5-[3-(4-Chloro-3-hydroxy-benzyloxy)-azetidin-1-yl]-5-methyl-2,2-diphenyl-hexanoic acid amide] yielded a Ki of 0.468 nM.
With `NC(=O)C(CCC1(N2CC(Oc3ccc(Cl)c(O)c3)C2)CCCC1)(c1ccccc1)c1ccccc1` [Example 139, 4-{1-[3-(4-Chloro-3-hydroxy-phenoxy)-azetidin-1-yl]-cyclopentyl}-2,2-diphenyl-butyramide] the Ki was 5.39 nM.
With `CC(C)(CCC(C(N)=O)(c1ccccc1)c1ccccc1)N1CC(Oc2cc(O)cc(Br)c2)C1` [Example 142, 5-[3-(3-Bromo-5-hydroxy-phenoxy)-azetidin-1-yl]-5-methyl-2,2-diphenyl-hexanoic acid amide] the Ki was 8.05 nM.
Compound `NC(=O)C(CCC1(N2CC(Oc3ccc(O)c(F)c3)C2)CCCC1)(c1ccccc1)c1ccccc1` [Example 145, 4-{1-[3-(3-Fluoro-4-hydroxy-phenoxy)-azetidin-1-yl]-cyclopentyl}-2,2-diphenyl-butyramide] has a Ki of 10.8 nM.
Work on `CC(C)(CCC(C(N)=O)(c1ccccc1)c1ccccc1)N1CC(OCc2ccc(O)c(Cl)c2)C1` [Example 146, 5-[3-(3-Chloro-4-hydroxy-benzyloxy)-azetidin-1-yl]-5-methyl-2,2-diphenyl-hexanoic acid amide] yielded a Ki of 0.247 nM.
`CC(C)(CCC(C(N)=O)(c1ccccc1)c1ccccc1)N1CC(OCc2ccc(Cl)cc2O)C1` [Example 147, 5-[3-(4-Chloro-2-hydroxy-benzyloxy)-azetidin-1-yl]-5-methyl-2,2-diphenyl-hexanoic acid amide] gave a Ki of 33.4 nM.
In the case of `CC(C)(CCC(C(N)=O)(c1ccccc1)c1ccccc1)N1CC(OCc2cccc(O)c2Cl)C1` [Example 148, 5-[3-(2-Chloro-3-hydroxy-benzyloxy)-azetidin-1-yl]-5-methyl-2,2-diphenyl-hexanoic acid amide], the Ki is reported as 0.353 nM.
`CC(C)(CCC(C(N)=O)(c1ccccc1)c1ccccc1)N1CC(Oc2cc(O)cc(O)c2)C1` [Example 149, 5-[3-(3,5-Dihydroxy-phenoxy)-azetidin-1-yl]-5-methyl-2,2-diphenyl-hexanoic acid amide] was tested, and the Ki was 0.714 nM.
Compound `CC(C)(CCC(C#N)(c1ccccc1)c1ccccc1)N1CC(Oc2cccc(O)c2)C1` [Example 150, 5-[3-(3-Hydroxy-phenoxy)-azetidin-1-yl]-5-methyl-2,2-diphenyl-hexanenitrile] has a Ki of 1.05 nM.
For `CC(C)(CCC(C(N)=O)(c1ccccc1)c1ccccc1)N1CC(OCc2ccc(O)cc2)C1` [Example 152, 5-[3-(4-Hydroxy-benzyloxy)-azetidin-1-yl]-5-methyl-2,2-diphenyl-hexanoic acid amide], the Ki was 0.229 nM.
